According to PubChem BioAssay (NCI):
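Dose response: 5 concentrations. Exposure: 48 h. Format: 96-well plates. Endpoint: linear interpolation; highest concentration if not reached. Definition used: TGI = concentration required for complete inhibition of growth.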

Columns and labels:
Assay in all cases: NCI-60 cell line screen, 48 h
[1] = test system: NCI-H522 lung
[2] = test system: UO-31 renal
[3] = test system: M14 melanoma
[4] = test system: COLO 205 colon
[5] = test system: HL-60(TB) leukemia
[6] = test system: NCI-H226 lung
[7] = test system: HT29 colon
[8] = test system: TK-10 renal
[9] = test system: HCT-15 colon
[10] = test system: SK-MEL-2 melanoma
[11] = test system: NCI-H23 lung
[12] = test system: RXF 393 renal
[13] = test system: LOX IMVI melanoma
[14] = test system: OVCAR-5 ovarian
[15] = test system: K-562 leukemia
[16] = test system: OVCAR-4 ovarian
[17] = test system: MOLT-4 leukemia
[18] = test system: DLD-1 colon
[19] = test system: EKVX NSCLC
[20] = test system: SF-539 CNS
[21] = test system: SK-MEL-28 melanoma
[22] = test system: 786-0 renal
[23] = test system: KM20L2 colon
[24] = test system: DMS 273 small cell lung
[25] = test system: RPMI-8226 leukemia
[26] = test system: SNB-75 CNS
[27] = test system: M19-MEL melanoma
[28] = test system: IGROV1 ovarian
[29] = test system: HOP-18 NSCLC
[30] = test system: CAKI-1 renal
[31] = test system: SK-OV-3 ovarian
[32] = test system: SR leukemia
[33] = test system: UACC-257 melanoma
[34] = test system: HCT-116 colon
[35] = test system: SNB-78 CNS
[36] = test system: UACC-62 melanoma
[37] = test system: A549 NSCLC
[38] = test system: MALME-3M melanoma
[39] = test system: LXFL 529 NSCLC
[40] = test system: SNB-19 CNS
[41] = test system: SF-295 CNS
[42] = test system: KM12 colon
[43] = test system: OVCAR-8 ovarian
[44] = test system: NCI-H460 lung
[45] = test system: ACHN renal
[46] = test system: CCRF-CEM leukemia
[47] = test system: SF-268 CNS
[48] = test system: U251 CNS
[49] = test system: SW-620 colon
[50] = test system: HCC-2998 colon
[51] = test system: SN12C renal
[52] = test system: HOP-62 NSCLC
[53] = test system: XF 498 CNS
[54] = test system: SK-MEL-5 melanoma
[55] = test system: HOP-92 NSCLC
[56] = test system: A498 renal
[57] = test system: DMS 114 small cell lung
[58] = test system: OVCAR-3 ovarian
[59] = test system: RXF-631 renal

Molecule COc1ccc(-c2cc3ccccc3[nH]c2=O)cc1OC has a TGI [1] greater than 100 µM, a TGI [2] greater than 100 µM and a TGI [3] greater than 100 µM. The TGI [4] was greater than 100 µM, the TGI [5] was greater than 100 µM and the TGI [6] was greater than 100 µM. It also gave a TGI [7] greater than 100 µM, a TGI [8] greater than 100 µM and a TGI [9] greater than 100 µM. For the same molecule, the TGI [10] was greater than 100 µM, the TGI [11] was greater than 100 µM and the TGI [12] was greater than 100 µM. For the same molecule, the TGI [13] was greater than 100 µM, the TGI [14] was greater than 100 µM and the TGI [15] was greater than 100 µM. It also gave a TGI [16] greater than 100 µM, a TGI [17] greater than 100 µM and a TGI [18] greater than 100 µM. For the same molecule, the TGI [19] was greater than 100 µM, the TGI [20] was greater than 100 µM and the TGI [21] was greater than 100 µM. For the same molecule, the TGI [22] was greater than 100 µM, the TGI [23] was greater than 100 µM and the TGI [24] was greater than 100 µM. It also gave a TGI [25] greater than 100 µM, a TGI [26] greater than 100 µM and a TGI [27] greater than 100 µM. The TGI [28] was greater than 100 µM, the TGI [29] was greater than 100 µM and the TGI [30] was greater than 100 µM. For the same molecule, the TGI [31] was greater than 100 µM, the TGI [32] was greater than 100 µM and the TGI [33] was greater than 100 µM. The TGI [34] was greater than 100 µM, the TGI [35] was greater than 100 µM and the TGI [36] was greater than 100 µM. The TGI [37] was greater than 100 µM, the TGI [38] was greater than 100 µM and the TGI [39] was greater than 100 µM. It also gave a TGI [40] greater than 100 µM, a TGI [41] greater than 100 µM and a TGI [42] greater than 100 µM. For the same molecule, the TGI [43] was greater than 100 µM, the TGI [44] was greater than 100 µM and the TGI [45] was greater than 100 µM. It also gave a TGI [46] greater than 100 µM, a TGI [47] greater than 100 µM and a TGI [48] greater than 100 µM. The TGI [49] was greater than 100 µM, the TGI [50] was greater than 100 µM and the TGI [51] was greater than 100 µM. The TGI [52] was greater than 100 µM and the TGI [53] was greater than 100 µM.

In the case of O=C1CC(C2(O)C(=O)Nc3ccc([N+](=O)[O-])cc32)c2ccccc21 (centres undefined), the TGI [1] is reported as 26.3 µM, the TGI [54] is reported as 75.6 µM and the TGI [2] is reported as greater than 100 µM. It also gave a TGI [3] of 52.2 µM, a TGI [4] of 71.6 µM and a TGI [5] of 45.3 µM. It also gave a TGI [6] of 92.7 µM, a TGI [7] of 62.7 µM and a TGI [8] greater than 100 µM. It also gave a TGI [9] of 37.8 µM, a TGI [10] of 36.5 µM and a TGI [11] of 71 µM. For the same molecule, the TGI [12] was 45.5 µM, the TGI [13] was 33 µM and the TGI [14] was greater than 100 µM. For the same molecule, the TGI [15] was 60.6 µM, the TGI [16] was 88.1 µM and the TGI [17] was 57.7 µM. It also gave a TGI [55] of 85.4 µM, a TGI [56] greater than 100 µM and a TGI [18] greater than 100 µM. It also gave a TGI [19] greater than 100 µM, a TGI [20] of 64.1 µM and a TGI [21] of 62 µM. The TGI [22] was 36.6 µM, the TGI [24] was 41.4 µM and the TGI [25] was 57.5 µM. For the same molecule, the TGI [26] was greater than 100 µM, the TGI [27] was 78.7 µM and the TGI [28] was 45.1 µM. For the same molecule, the TGI [29] was greater than 100 µM, the TGI [31] was greater than 100 µM and the TGI [57] was 23.9 µM. It also gave a TGI [32] of 46.6 µM, a TGI [33] greater than 100 µM and a TGI [34] greater than 100 µM. It also gave a TGI [35] greater than 100 µM, a TGI [36] of 40.2 µM and a TGI [37] greater than 100 µM. For the same molecule, the TGI [38] was greater than 100 µM, the TGI [39] was 76.2 µM and the TGI [58] was 67.7 µM. It also gave a TGI [40] greater than 100 µM, a TGI [41] greater than 100 µM and a TGI [42] of 98.6 µM. It also gave a TGI [43] greater than 100 µM, a TGI [44] of 29.9 µM and a TGI [45] greater than 100 µM. It also gave a TGI [46] of 61.1 µM, a TGI [47] of 54.7 µM and a TGI [48] of 37.8 µM. The TGI [59] was 31.8 µM, the TGI [49] was 81.6 µM and the TGI [50] was 44.9 µM. The TGI [51] was 80.5 µM and the TGI [52] was greater than 100 µM.
